Test results published in patent publication US10968169B2, “Urea derivative” (Daiichi Sankyo Company, Limited, priority 2016, dated 2021).

target: tryptophanase of Bacteroides thetaiotamicron (Bacteroides thetaiotaomicron, UniProt Q8A7N2); experiment: Tryptophanase enzyme inhibitory activity (LDH-coupled NADH loss); format: biochemical; conditions: L-tryptophan 10 mM, 37° C., absorbance at 340 nm; read-out: Bacteroides Activity of Inhibiting Tryptophanase (IC50)
Experimental: Tryptophanase inhibitory activity was evaluated by a method using lactate dehydrogenase (LDH). The reaction time-dependent reduction in NADH conjugated with the enzymatic reaction, with LDH, of pyruvic acid produced through the enzymatic reaction of L-tryptophan as a substrate with tryptophanase, was measured with a spectrophotometer (Phillips-R S et al., Biochemistry, 23, 6228-6234 (1984)). Enzyme inhibitory activity obtained without adding a test compound (by adding DMSO alone) in the presence of tryptophanase was used as a control. As the enzyme, tryptophanase of Bacteroides thetaiotamicron (Genbank accession number: HC914434.1) was used. A test compound solution was prepared by dissolving each test compound in DMSO in an arbitrary concentration (from 30 mM to 30 nM at 10-fold common ratio). LDH, NADH and L-tryptophan were prepared, using distilled water, respectively to concentrations of 80 units/mL, 10 mM and […]. Bacteroides tryptophanase was prepared to 30 mg/mL. A potassium phosphate buffer was used as the buffer. [table] A reaction solution A was dispensed at 284.8 μL per well into a 96-well plate, and the test compound solution was added at 3.2 μL per well to obtain a final concentration of 1/100 (reaction solution B). The reaction solution B was incubated at 37° C. for 30 minutes, L-tryptophan was added thereto at 32 μL per well to obtain a final concentration of 10 mM (reaction solution C), and the enzyme reaction was performed at 37° C. over 30 minutes with absorbance at 340 nm measured for monitoring the NADH loss. Based on the NADH loss, the tryptophanase inhibitory activity of the compound was evaluated. Besides, the following compounds were similarly tested instead of the test compound.

Chain of tryptophanase of Bacteroides thetaiotamicron (Q8A7N2 entry or part of it, change not shown): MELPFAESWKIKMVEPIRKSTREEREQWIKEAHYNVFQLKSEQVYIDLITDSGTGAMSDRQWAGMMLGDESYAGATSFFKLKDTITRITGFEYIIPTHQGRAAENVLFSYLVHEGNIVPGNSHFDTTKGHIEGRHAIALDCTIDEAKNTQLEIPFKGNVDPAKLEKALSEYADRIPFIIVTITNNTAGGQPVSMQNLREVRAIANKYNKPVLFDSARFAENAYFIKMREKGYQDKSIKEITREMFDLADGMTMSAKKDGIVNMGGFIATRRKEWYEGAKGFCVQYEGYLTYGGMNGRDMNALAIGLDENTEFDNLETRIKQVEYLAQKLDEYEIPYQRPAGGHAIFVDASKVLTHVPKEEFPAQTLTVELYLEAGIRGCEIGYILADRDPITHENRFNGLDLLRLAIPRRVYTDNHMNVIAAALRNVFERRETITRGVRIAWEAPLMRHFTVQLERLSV

Row | SMILES | IC50
1 | CCC(CC)(NC(=O)Nc1ccc(OC(F)(F)F)cc1)C(=O)O [Example 1, 2-Ethyl-2-({[4-(trifluoromethoxy)phenyl]carbamoyl}amino)butanoic acid] | 3.7 µM
2 | CC(NC(=O)Nc1ccc(OC(F)(F)F)cc1)(C(=O)O)C1CC1 (centres unmarked) [Example 2, 2-Cyclopropyl-2-({[4-(trifluoromethoxy)phenyl]carbamoyl}amino)propanoic acid] | 20.3 µM
3 | CC(C)CC(C)(NC(=O)Nc1ccc(OC(F)(F)F)cc1)C(=O)O (centres unmarked) [Example 3, 2-Methyl-N-{[4-(trifluoromethoxy)phenyl]carbamoyl}leucine] | 8.7 µM
4 | CC[C@@](C)(NC(=O)Nc1ccc(OC(F)(F)F)cc1)C(=O)O [Example 4, (−)-N-{[4-(Trifluoromethoxy)phenyl]carbamoyl}-D-isovaline] | 8.8 µM
5 | O=C(Nc1ccc(OC(F)(F)F)cc1)NC(C(=O)O)(C1CC1)C1CC1 [Example 5, Dicyclopropyl({[4-(trifluoromethoxy)phenyl]carbamoyl}amino)acetic acid] | 1.7 µM
6 | CCCC(CC)(NC(=O)Nc1ccc(OC(F)(F)F)cc1)C(=O)O (centres unmarked) [Example 6, 2-Ethyl-N-{[4-(trifluoromethoxy)phenyl]carbamoyl}norvaline] | 5.3 µM
7 | CCC(NC(=O)Nc1ccc(OC(F)(F)F)cc1)(C(=O)O)C1CC1 (centres unmarked) [Example 7, 2-Cyclopropyl-2-({[4-(trifluoromethoxy)phenyl]carbamoyl}amino)butanoic acid] | 0.3 µM
8 | O=C(Nc1ccc(OC(F)F)cc1)NC(C(=O)O)(C1CC1)C1CC1 [Example 10, Dicyclopropyl({[4-(difluoromethoxy)phenyl]carbamoyl}amino)acetic acid] | 1.9 µM
9 | CCC(NC(=O)Nc1ccc(OC(F)F)cc1)(C(=O)O)C1CC1 (centres unmarked) [Example 11, 2-Cyclopropyl-2-({[4-(difluoromethoxy)phenyl]carbamoyl}amino)butanoic acid] | 0.6 µM
10 | CC[C@@](C)(NC(=O)Nc1ccc(CC(F)(F)F)cc1)C(=O)O [Example 13, N-{[4-(2,2,2-Trifluoroethyl)phenyl]carbamoyl}-D-isovaline] | 6.7 µM
11 | CCC(CC)(NC(=O)Nc1ccc(SC(F)(F)F)cc1)C(=O)O [Example 14, 2-Ethyl-2-[({4-[(trifluoromethyl)sulfanyl]phenyl}carbamoyl)amino]butanoic acid] | 0.4 µM
12 | CCC(CC)(NC(=O)Nc1ccc(OC(F)F)cc1F)C(=O)O [Example 16, 2-({[4-(Difluoromethoxy)-2-fluorophenyl]carbamoyl}amino)-2-ethylbutanoic acid] | 4.2 µM
13 | CC[C@@](C)(NC(=O)Nc1ccc(OC(F)F)cc1F)C(=O)O [Example 17, N-{[4-(Difluoromethoxy)-2-fluorophenyl]carbamoyl}-D-isovaline] | 12.3 µM
14 | CC[C@@](C)(NC(=O)Nc1ccc(OC(F)F)c(Cl)c1)C(=O)O [Example 18, N-{[3-Chloro-4-(difluoromethoxy)phenyl]carbamoyl}-D-isovaline] | 5.3 µM
15 | CC[C@@](C)(NC(=O)Nc1ccc(OC(F)(F)F)c(C#N)c1)C(=O)O [Example 19, N-{[3-Cyano-4-(trifluoromethoxy)phenyl]carbamoyl}-D-isovaline] | 35.6 µM
16 | CCC(CC)(NC(=O)Nc1ccc(C(F)(F)F)cc1)C(=O)O [Example 20, 2-Ethyl-2-({[4-(trifluoromethyl)phenyl]carbamoyl}amino)butanoic acid] | 11.6 µM
17 | O=C(Nc1ccccc1)NC(C(=O)O)(C1CC1)C1CC1 [Example 21, Dicyclopropyl[(phenylcarbamoyl)amino]acetic acid] | 5 µM
18 | CCC(NC(=O)Nc1ccccc1)(C(=O)O)C1CC1 (centres unmarked) [Example 22, 2-Cyclopropyl-2-[(phenylcarbamoyl)amino]butanoic acid] | 2.1 µM

Row | SMILES | IC50
19 | CCC(NC(=O)Nc1ccc(F)cc1)(C(=O)O)C1CC1 (centres unmarked) [Example 23, 2-Cyclopropyl-2-{[(4-fluorophenyl)carbamoyl]amino}butanoic acid] | 5.2 µM
20 | CC[C@@](C)(NC(=O)Nc1cccc(F)c1)C(=O)O [Example 24, N-[(3-Fluorophenyl)carbamoyl]-D-isovaline] | 33.2 µM
21 | CC[C@@](C)(NC(=O)Nc1cccc(Cl)c1)C(=O)O [Example 26, N-[(3-Chlorophenyl)carbamoyl]-D-isovaline] | 13.2 µM
22 | CCC(CC)(NC(=O)Nc1ccc(Cl)s1)C(=O)O [Example 28, 2-{[(5-Chlorothiophen-2-yl)carbamoyl]amino}-2-ethylbutanoic acid] | 3.2 µM
23 | CC[C@@](C)(NC(=O)Nc1ccc(Cl)c(Cl)c1)C(=O)O [Example 29, N-[(3,4-Dichlorophenyl)carbamoyl]-D-isovaline] | 15.5 µM
24 | CCC(NC(=O)Nc1cccc(C#N)c1)(C(=O)O)C1CC1 (centres unmarked) [Example 32, 2-{[(3-Cyanophenyl)carbamoyl]amino}-2-cyclopropylbutanoic acid] | 1 µM
25 | N#Cc1cccc(NC(=O)NC(C(=O)O)(C2CC2)C2CC2)c1 [Example 34, {[(3-Cyanophenyl)carbamoyl]amino}(dicyclopropyl)acetic acid] | 1.8 µM
26 | N#Cc1ccc(NC(=O)NC(C(=O)O)(C2CC2)C2CC2)cc1 [Example 35, {[(4-Cyanophenyl)carbamoyl]amino}(dicyclopropyl)acetic acid] | 10.9 µM
27 | CCC(CC)(NC(=O)Nc1cc(F)cc(C#N)c1)C(=O)O [Example 36, 2-{[(3-Cyano-5-fluorophenyl)carbamoyl]amino}-2-ethylbutanoic acid] | 20.1 µM
28 | CCC(CC)(NC(=O)Nc1ccc(Cl)c(C#N)c1)C(=O)O [Example 37, 2-{[(4-Chloro-3-cyanophenyl)carbamoyl]amino}-2-ethylbutanoic acid] | 25 µM
29 | N#CCc1ccc(NC(=O)NC(C(=O)O)(C2CC2)C2CC2)cc1 [Example 38, ({[4-(Cyanomethyl)phenyl]carbamoyl}amino)(dicyclopropyl)acetic acid] | 3.4 µM
30 | CCC(CC)(NC(=O)Nc1ccc(C2(C#N)CC2)cc1)C(=O)O [Example 39, 2-({[4-(1-Cyanocyclopropyl)phenyl]carbamoyl}amino)-2-ethylbutanoic acid] | 5.2 µM
31 | CCC(CC)(NC(=O)Nc1ccc(C(C)C#N)cc1)C(=O)O (centres unmarked) [Example 40, 2-({[4-(1-Cyanoethyl)phenyl]carbamoyl}amino)-2-ethylbutanoic acid] | 5.8 µM
32 | CCC(CC)(NC(=O)Nc1ccc(-c2ccccc2)cc1)C(=O)O [Example 41, 2-[(Biphenyl-4-ylcarbamoyl)amino]-2-ethylbutanoic acid] | 0.3 µM
33 | CCC(CC)(NC(=O)Nc1ccc(-c2ccccc2F)cc1)C(=O)O [Example 42, 2-Ethyl-2-{[(2′-fluorobiphenyl-4-yl)carbamoyl]amino}butanoic acid] | 0.1 µM
34 | CCC(CC)(NC(=O)Nc1ccc(N2CCCCC2)cc1)C(=O)O [Example 43] | 1.6 µM
35 | CCC(CC)(NC(=O)Nc1ccc(N2CCC(F)(F)C2)cc1)C(=O)O [Example 44, 2-({[4-(3,3-Difluoropyrrolidine-1-yl)phenyl]carbamoyl}amino)-2-ethylbutanoic acid] | 2.5 µM
